Experiments:
[1] = target: recombinant human Mcl-1 (residues 171-327) / Bim interaction (Homo sapiens (Human), UniProt Q07820); test: biochemical; format: binding; details: TR-FRET, Mcl-1(171-327) / biotin-Bim (51-76); read-out: Mcl-1 HTRF IC50
[2] = system: human multiple myeloma cell line, OPM-2; test: Cell viability assay (OPM-2 10 FBS), CellTiter-Glo; format: cell-based; details: Homo sapiens, OPM-2, 16 h, read-out: OPM-2 10% FBS IC50 IP, OPM-2 cells, 10% FBS, 16 h, CellTiter-Glo
Summary of the method: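 3000 cells/well, RPMI 1640 + 10% FBS; serial compound dilutions, 16 h, 37 °C/5% CO2.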

Chain of recombinant human Mcl-1 (residues 171-327) / Bim interaction (Q07820 171-327): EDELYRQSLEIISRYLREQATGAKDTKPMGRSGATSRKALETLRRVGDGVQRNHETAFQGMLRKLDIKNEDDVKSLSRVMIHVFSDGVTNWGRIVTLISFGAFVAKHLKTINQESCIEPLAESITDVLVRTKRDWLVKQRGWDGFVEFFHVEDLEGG

Compound	IC50 [1] [nM]	IC50 [2] [nM]
C[C@@H]1CS(=O)(=O)NC(=O)c2ccc3c(c2)N(C[C@@H]2CC[C@H]2[C@](O)(C2SCCCS2)/C=C/[C@@H]1C)C[C@@]1(CCCc2cc(Cl)ccc21)CO3 [Example 100566, (1S,3′R,6′R,7′S,8′E,10′S,11′S)-6-chloro-7′-(1,3-dithian-2-yl)-7′-hydroxy-10′,11′-dimethyl-3,4-dihydro-2H,15′H-spiro[naphthalene-1,22′-[20]oxa[13]thia[1,14]diazatetracyclo [14.7.2.0~3,6~.0~19,24~]pentacosa[8,16,18,24]tetraen]-15′-one 13′,13′-dioxide]	0.142	590
CO[C@@]1(C2SCCCS2)/C=C/[C@H](C)[C@H](C)CS(=O)(=O)NC(=O)c2ccc3c(c2)N(C[C@@H]2CC[C@H]21)C[C@@]1(CCCc2cc(Cl)ccc21)CO3 [Example 100567, (1S,3′R,6′R,7′S,8′E,10′S,11′S)-6-chloro-7′-(1,3-dithian-2-yl)-7′-methoxy-10′,11′-dimethyl-3,4-dihydro-2H,15′H-spiro[naphthalene-1,22′-[20]oxa[13]thia[1,14]diazatetracyclo [14.7.2.0~3,6~.0~19,24~]pentacosa[8,16,18,24]tetraen]-15′-one 13′,13′-dioxide]	0.125	249
C=C(F)C[C@@]1(OC)/C=C/C[C@H](C)[C@@H](C)S(=O)(=O)NC(=O)c2ccc3c(c2)N(C[C@@H]2CC[C@H]21)C[C@@]1(CCCc2cc(Cl)ccc21)CO3 [Example 100568, (1S,3′R,6′R,7′R,8′E,11′S,12′R)-6-chloro-7′-(2-fluoro-2-propen-1-yl)-7′-methoxy-11′,12′-dimethyl-3,4-dihydro-2H,15′H-spiro[naphthalene-1,22′-[20]oxa[13]thia[1,14]diazatetracyclo [14.7.2.0~3,6~.0~19,24~]pentacosa[8,16,18,24]tetraen]-15′-one 13′,13′-dioxide]	0.431	1540
CO[C@]1(C2SCCCS2)/C=C/[C@H](C)[C@H](C)CS(=O)(=O)NC(=O)c2ccc3c(c2)N(C[C@@H]2CC[C@H]21)C[C@@]1(CCCc2cc(Cl)ccc21)CO3 [Example 100569, (1S,3′R,6′R,7′R,8′E,10′S,11′S)-6-chloro-7′-(1,3-dithian-2-yl)-7′-methoxy-10′,11′-dimethyl-3,4-dihydro-2H,15′H-spiro[naphthalene-1,22′-[20]oxa[13]thia[1,14]diazatetracyclo [14.7.2.0~3,6~.0~19,24~]pentacosa[8,16,18,24]tetraen]-15′-one 13′,13′-dioxide]	2.48	2000
CO[C@@]1(Cc2nc(CO)co2)/C=C/C[C@H](C)[C@@H](C)S(=O)(=O)NC(=O)c2ccc3c(c2)N(C[C@@H]2CC[C@H]21)C[C@@]1(CCCc2cc(Cl)ccc21)CO3 [Example 100570, (1S,3′R,6′R,7′S,8′E,11′S,12′R)-6-chloro-7′-((4-(hydroxymethyl)-1,3-oxazol-2-yl)methyl)-7′-methoxy-11′,12′-dimethyl-3,4-dihydro-2H,15′H-spiro[naphthalene-1,22′-[20]oxa[13]thia[1,14]diazatetracyclo [14.7.2.0~3,6~.0~19,24~]pentacosa[8,16,18,24]tetraen]-15′-one 13′,13′-dioxide]	3.38	5050
COCC[C@@H]1[C@@H](C)C/C=C/[C@@](C=O)(OC)[C@@H]2CC[C@H]2CN2C[C@@]3(CCCc4cc(Cl)ccc43)COc3ccc(cc32)C(=O)NS1(=O)=O [Example 100571, (1S,3′R,6′R,7′R,8′E,11′S,12′R)-6-chloro-7′-methoxy-12′-(2-methoxyethyl)-11′-methyl-15′-oxo-3,4-dihydro-2H-spiro[naphthalene-1,22′-[20]oxa[13]thia[1,14]diazatetracyclo [14.7.2.0~3,6~.0~19,24~]pentacosa[8,16,18,24]tetraene]-7′-carbaldehyde 13′,13′-dioxide]	0.076	922
Cc1ncoc1C[C@]1(O)/C=C/C[C@H](C)[C@@H](C)S(=O)(=O)NC(=O)c2ccc3c(c2)N(C[C@@H]2CC[C@H]21)C[C@@]1(CCCc2cc(Cl)ccc21)CO3 [Example 100572, (1S,3′R,6′R,7′S,8′E,11′S,12′R)-6-chloro-7′-hydroxy-11′,12′-dimethyl-7′-((4-methyl-1,3-oxazol-5-yl)methyl)-3,4-dihydro-2H,15′H-spiro[naphthalene-1,22′-[20]oxa[13]thia[1,14]diazatetracyclo [14.7.2.0~3,6~.0~19,24~]pentacosa[8,16,18,24]tetraen]-15′-one 13′,13′-dioxide]	0.174	1160
Cc1onc(C[C@@]2(O)/C=C/C[C@H](C)[C@@H](C)S(=O)(=O)NC(=O)c3ccc4c(c3)N(C[C@@H]3CC[C@H]32)C[C@@]2(CCCc3cc(Cl)ccc32)CO4)c1C [Example 100573, (1S,3′R,6′R,7′R,8′E,11′S,12′R)-6-chloro-7′-((4,5-dimethyl-1,2-oxazol-3-yl)methyl)-7′-hydroxy-11′,12′-dimethyl-3,4-dihydro-2H,15′H-spiro[naphthalene-1,22′-[20]oxa[13]thia[1,14]diazatetracyclo [14.7.2.0~3,6~.0~19,24~]pentacosa[8,16,18,24]tetraen]-15′-one 13′,13′-dioxide]	2.07	7390
CO[C@]1(Cc2noc(C)c2C)/C=C/C[C@H](C)[C@@H](C)S(=O)(=O)NC(=O)c2ccc3c(c2)N(C[C@@H]2CC[C@H]21)C[C@@]1(CCCc2cc(Cl)ccc21)CO3 [Example 100574, (1S,3′R,6′R,7′R,8′E,11′S,12′R)-6-chloro-7′-((4,5-dimethyl-1,2-oxazol-3-yl)methyl)-7′-methoxy-11′,12′-dimethyl-3,4-dihydro-2H,15′H-spiro[naphthalene-1,22′-[20]oxa[13]thia[1,14]diazatetracyclo [14.7.2.0~3,6~.0~19,24~]pentacosa[8,16,18,24]tetraen]-15′-one 13′,13′-dioxide]	1.42	4320
CO[C@@]1(CC(=O)On2nnc3cccnc32)/C=C/C[C@H](C)[C@@H](C)S(=O)(=O)NC(=O)c2ccc3c(c2)N(C[C@@H]2CC[C@H]21)C[C@@]1(CCCc2cc(Cl)ccc21)CO3 [Example 100576, (1S,3′R,6′R,7′S,8′E,11′S,12′R)-6-chloro-7′-methoxy-11′,12′-dimethyl-7′-(2-oxo-2-(3H-[1,2,3]triazolo[4,5-b]pyridin-3-yloxy)ethyl)-3,4-dihydro-2H,15′H-spiro[naphthalene-1,22′-[20]oxa[13]thia[1,14]diazatetracyclo [14.7.2.0~3,6~.0~19,24~]pentacosa[8,16,18,24]tetraen]-15′-one 13′,13′-dioxide]	1.15	4090
Cc1onc(C[C@]2(O)/C=C/C[C@H](C)[C@@H](C)S(=O)(=O)NC(=O)c3ccc4c(c3)N(C[C@@H]3CC[C@H]32)C[C@@]2(CCCc3cc(Cl)ccc32)CO4)c1C [Example 100578, (1S,3′R,6′R,7′S,8′E,11′S,12′R)-6-chloro-7′-((4,5-dimethyl-1,2-oxazol-3-yl)methyl)-7′-hydroxy-11′,12′-dimethyl-3,4-dihydro-2H,15′H-spiro[naphthalene-1,22′-[20]oxa[13]thia[1,14]diazatetracyclo [14.7.2.0~3,6~.0~19,24~]pentacosa[8,16,18,24]tetraen]-15′-one 13′,13′-dioxide]	0.089	595
COC(=O)c1nc(C[C@]2(OC)/C=C/C[C@H](C)[C@@H](C)S(=O)(=O)NC(=O)c3ccc4c(c3)N(C[C@@H]3CC[C@H]32)C[C@@]2(CCCc3cc(Cl)ccc32)CO4)oc1C [Example 100583, methyl 2-(((1S,3′R,6′R,7′S,8′E,11′S,12′R)-6-chloro-7′-methoxy-11′,12′-dimethyl-13′,13′-dioxido-15′-oxo-3,4-dihydro-2H-spiro[naphthalene-1,22′-[20]oxa[13]thia[1,14]diazatetracyclo [14.7.2.0~3,6~.0~19,24~]pentacosa[8,16,18,24]tetraen]-7′-yl)methyl)-5-methyl-1,3-oxazole-4-carboxylate]	0.124	411
CO[C@@]1(Cc2nc(CO)c(C)o2)/C=C/C[C@H](C)[C@@H](C)S(=O)(=O)NC(=O)c2ccc3c(c2)N(C[C@@H]2CC[C@H]21)C[C@@]1(CCCc2cc(Cl)ccc21)CO3 [Example 100584, (1S,3′R,6′R,7′S,8′E,11′S,12′R)-6-chloro-7′-((4-(hydroxymethyl)-5-methyl-1,3-oxazol-2-yl)methyl)-7′-methoxy-11′,12′-dimethyl-3,4-dihydro-2H,15′H-spiro[naphthalene-1,22′-[20]oxa[13]thia[1,14]diazatetracyclo [14.7.2.0~3,6~.0~19,24~]pentacosa[8,16,18,24]tetraen]-15′-one 13′,13′-dioxide]	0.139	349
COCc1nc(C[C@]2(OC)/C=C/C[C@H](C)[C@@H](C)S(=O)(=O)NC(=O)c3ccc4c(c3)N(C[C@@H]3CC[C@H]32)C[C@@]2(CCCc3cc(Cl)ccc32)CO4)oc1C [Example 100585, (1S,3′R,6′R,7′S,8′E,11′S,12′R)-6-chloro-7′-methoxy-7′-((4-(methoxymethyl)-5-methyl-1,3-oxazol-2-yl)methyl)-11′,12′-dimethyl-3,4-dihydro-2H,15′H-spiro[naphthalene-1,22′-[20]oxa[13]thia[1,14]diazatetracyclo [14.7.2.0~3,6~.0~19,24~]pentacosa[8,16,18,24]tetraen]-15′-one 13′,13′-dioxide]	0.057	696
CO[C@@]1(Cc2nc(CN(C)C)c(C)o2)/C=C/C[C@H](C)[C@@H](C)S(=O)(=O)NC(=O)c2ccc3c(c2)N(C[C@@H]2CC[C@H]21)C[C@@]1(CCCc2cc(Cl)ccc21)CO3 [Example 100586, (1S,3′R,6′R,7′S,8′E,11′S,12′R)-6-chloro-7′-((4-((dimethylamino)methyl)-5-methyl-1,3-oxazol-2-yl)methyl)-7′-methoxy-11′,12′-dimethyl-3,4-dihydro-2H,15′H-spiro[naphthalene-1,22′-[20]oxa[13]thia[1,14]diazatetracyclo [14.7.2.0~3,6~.0~19,24~]pentacosa[8,16,18,24]tetraen]-15′-one 13′,13′-dioxide]	0.074	453
